Test results as given in article PMC4452589, “An evaluation of the brain distribution of [^11C]GSK1034702, a muscarinic-1 (M1) positive allosteric modulator in the living human brain using positron emission tomography” (EJNMMI Research, 2014).
Like-named read-outs stand apart in the source and are kept apart here. One block for each molecule: values may come before it.

Key:
[1] = [11C]GSK1034702 PET brain distribution and kinetics in healthy male humans; type: in vivo; conditions: human
Protocol: An open-label PET study (GSK study number 110771) was conducted to assess the transport of [^11C]GSK1034702 across the BBB and its distribution in the living human brain. Four healthy males aged between 35 and 55 years old, with body mass index (BMI) between 19.0 and 29.0 kg/m^2, and the absence of past or present neurological, medical or psychiatric illnesses and concomitant medications were enrolled. Clinical status was assessed by history, physical examination, routine blood tests, urine toxicology and electrocardiogram. All subjects provided written informed consent. The study was approved by the Edinburgh Independent Ethics Committee for Medical Research and permission to administer radioisotopes was obtained from the Administration of Radioactive Substances Advisory Committee of the UK. Subjects were recruited by and monitored by the Hammersmith Medicines Research (HMR) clinic. All scanning procedures were performed at the GlaxoSmithKline Clinical Imaging Center, Hammersmith Hospital, London.
Each subject underwent a single study day, during which PET imaging was performed. T1-weighted structural MRI scan was performed for all subjects to provide neuroanatomical information. A tracer dose of [^11C]GSK1034702 (mass <50 μg) was administered as an IV bolus immediately before each PET scan. During the scanning day, each subject received a baseline [^11C]GSK1034702 scan, followed by a single 5-mg oral dose (p.o.) of […] and a subsequent [^11C]GSK1034702 scan approximately 4 h post-dose. Subjects returned to the clinic for a follow-up visit 7 to 14 days following the oral dose of GSK1034702.
Dynamic PET data were acquired using a Siemens Biograph 6 Truepoint with TrueV PET-CT (Siemens Healthcare, Malvern, PA, USA) in three-dimensional (3D) mode. A computed tomography (CT) scan was acquired for attenuation correction of PET data prior to administration of the radiotracer. A cannula was inserted under local anaesthesia into the radial artery, contralateral to the tracer injection site, and used to collect arterial blood samples to estimate the time course of radioactivity and metabolism of GSK1034702. The radiotracer was administered as an IV bolus over 20 s, and dynamic PET data were acquired for 90 min.
Arterial blood radioactivity was measured continuously for the first 15 min after [^11C]GSK1034702 injection, using a continuous sampling system (ABSS Allogg, Mariefred, Sweden). In addition, 12 serial discrete blood samples were obtained (at 5, 10, 15, 20, 25, 30, 40, 50, 60, 70, 80 and 90 min post injection), to determine whole blood and plasma activity. Seven samples (at 5, 10, 20, 30, 50, 70 and 90 min) were further processed by HPLC to measure the fraction of plasma activity representing unmetabolised GSK1034702. For all human studies, the non-protein-bound fraction of [^11C]GSK1034702 in arterial plasma (fP) was assessed by ultrafiltration for the blood sample taken at the beginning of the scan.
Emission PET data were binned into 26 frames (durations: 8 × 15 s, 3 × 60 s, 5 × 2 min, […], 5 × 10 min) and reconstructed using Fourier re-binning and a two-dimensional (2D) filtered back projection algorithm with a ramp filter. Image data were then smoothed with a Gaussian filter (5 mm FWHM). The PET reconstruction process included corrections for scatter, randoms and attenuation. Dynamic PET data were corrected for motion via frame-to-frame image registration and aligned with the structural T1 MRI image using SPM5 (Wellcome Trust Centre for Neuroimaging, http://www.fil.ion.ucl.ac.uk/spm) with a mutual information cost function.
The CIC Neuroanatomical Atlas was non-linearly deformed into the individual's space to obtain a personalised anatomical parcellation of ROIs. These ROIs were applied to the dynamic emission data, and regional TACs were obtained for the whole brain, frontal cortex, occipital cortex, striatum, thalamus, hippocampus and cerebellum. […]

[2] = plasma free fraction by ultrafiltration, baboon arterial plasma; type: in vitro ADME; conditions: baboon (Papio anubis), mean ± SD, read-out: free fraction in plasma (fP)
Protocol: For all non-human primate studies, the non-protein-bound fraction of [^11C]GSK1034702 in arterial plasma (fP) was quantified using the following methodology: triplicate 200 μL aliquots of plasma collected before injection were mixed with [^11C]GSK1034702, pipetted into ultrafiltration units (Centrifree; Amicon, Danvers, MA, USA) and centrifuged at room temperature (20 min at 4,000 rpm). At the end of centrifugation, plasma and ultrafiltrate activities were counted and fP was calculated as the ratio of ultrafiltrate to total activity concentrations.

[3] = male, whole brain, intravenous, two-tissue compartmental model, read-out: whole brain VT

Kp ([1]; male, cortex, intravenous, read-out: VT measured in the human cortex): 4.9 | Kp [1, 3]: 4.9 | fraction unbound at 20 min [2]: 0.54
SMILES: Cc1cc(F)c2[nH]c(=O)n(C3CCN(C4CCOCC4)CC3)c2c1 [GSK1034702]

K 1 ([1]; Cerebellum, Subject 1 Scan 1 (baseline)): 0.23 mL.cm^−3.min^−1 | K 1 ([1]; Cerebellum, Subject 2 Scan 1 (baseline)): 0.19 mL.cm^−3.min^−1 | K 1 ([1]; Cerebellum, Subject 2 Scan 2 (post dose, 5 mg oral)): 0.15 mL.cm^−3.min^−1 | K 1 ([1]; Cerebellum, Subject 4 Scan 1 (baseline)): 0.19 mL.cm^−3.min^−1 | K 1 ([1]; Cerebellum, Subject 4 Scan 2 (post dose, 5 mg oral)): 0.19 mL.cm^−3.min^−1 | K 1 ([1]; Cortex, Subject 1 Scan 1 (baseline)): 0.19 mL.cm^−3.min^−1 | K 1 ([1]; Cortex, Subject 2 Scan 1 (baseline)): 0.16 mL.cm^−3.min^−1 | K 1 ([1]; Cortex, Subject 2 Scan 2 (post dose, 5 mg oral)): 0.12 mL.cm^−3.min^−1 | K 1 ([1]; Cortex, Subject 4 Scan 1 (baseline)): 0.16 mL.cm^−3.min^−1 | K 1 ([1]; Cortex, Subject 4 Scan 2 (post dose, 5 mg oral)): 0.17 mL.cm^−3.min^−1 | K 1 ([1]; MTL, Subject 1 Scan 1 (baseline)): 0.33 mL.cm^−3.min^−1 | K 1 ([1]; MTL, Subject 2 Scan 1 (baseline)): 0.19 mL.cm^−3.min^−1 | K 1 ([1]; MTL, Subject 2 Scan 2 (post dose, 5 mg oral)): 0.16 mL.cm^−3.min^−1 | K 1 ([1]; MTL, Subject 4 Scan 1 (baseline)): 0.24 mL.cm^−3.min^−1 | K 1 ([1]; MTL, Subject 4 Scan 2 (post dose, 5 mg oral)): 0.25 mL.cm^−3.min^−1 | K 1 ([1]; Striatum, Subject 1 Scan 1 (baseline)): 0.20 mL.cm^−3.min^−1 | K 1 ([1]; Striatum, Subject 2 Scan 1 (baseline)): 0.16 mL.cm^−3.min^−1 | K 1 ([1]; Striatum, Subject 2 Scan 2 (post dose, 5 mg oral)): 0.13 mL.cm^−3.min^−1 | K 1 ([1]; Striatum, Subject 4 Scan 1 (baseline)): 0.18 mL.cm^−3.min^−1 | K 1 ([1]; Striatum, Subject 4 Scan 2 (post dose, 5 mg oral)): 0.18 mL.cm^−3.min^−1 | K 1 ([1]; Thalamus, Subject 1 Scan 1 (baseline)): 0.29 mL.cm^−3.min^−1 | K 1 ([1]; Thalamus, Subject 2 Scan 1 (baseline)): 0.19 mL.cm^−3.min^−1 | K 1 ([1]; Thalamus, Subject 2 Scan 2 (post dose, 5 mg oral)): 0.15 mL.cm^−3.min^−1 | K 1 ([1]; Thalamus, Subject 4 Scan 1 (baseline)): 0.20 mL.cm^−3.min^−1 | K 1 ([1]; Thalamus, Subject 4 Scan 2 (post dose, 5 mg oral)): 0.20 mL.cm^−3.min^−1 | K 1 ([1]; White matter, Subject 1 Scan 1 (baseline)): 0.13 mL.cm^−3.min^−1 | K 1 ([1]; White matter, Subject 2 Scan 1 (baseline)): 0.10 mL.cm^−3.min^−1 | K 1 ([1]; White matter, Subject 2 Scan 2 (post dose, 5 mg oral)): 0.08 mL.cm^−3.min^−1 | K 1 ([1]; White matter, Subject 4 Scan 1 (baseline)): 0.11 mL.cm^−3.min^−1 | K 1 ([1]; White matter, Subject 4 Scan 2 (post dose, 5 mg oral)): 0.11 mL.cm^−3.min^−1 | change in MTL VT following oral dose of 5 mg GSK1034702 ([1]; both subjects with pre- and post-dose data): small (but non-significant) reduction | Kp ([1]; brain cortex, intravenous, Cortex, Subject 1 Scan 1 (baseline), read-out: V T): 5.37 | Kp ([1]; brain cortex, intravenous, Cortex, Subject 2 Scan 1 (baseline), read-out: V T): 5 | Kp ([1]; brain cortex, intravenous, Cortex, Subject 4 Scan 1 (baseline), read-out: V T): 5.57 | Kp ([1]; brain cortex, po, Cortex, Subject 2 Scan 2 (post dose, 5 mg oral), read-out: V T): 4.03 | Kp ([1]; brain cortex, po, Cortex, Subject 4 Scan 2 (post dose, 5 mg oral), read-out: V T): 4.81 | Kp ([1]; brain striatum, intravenous, Striatum, Subject 1 Scan 1 (baseline), read-out: V T): 5.59 | Kp ([1]; brain striatum, intravenous, Striatum, Subject 2 Scan 1 (baseline), read-out: V T): 5.05 | Kp ([1]; brain striatum, intravenous, Striatum, Subject 4 Scan 1 (baseline), read-out: V T): 5.83 | Kp ([1]; brain striatum, po, Striatum, Subject 2 Scan 2 (post dose, 5 mg oral), read-out: V T): 5.29 | Kp ([1]; brain striatum, po, Striatum, Subject 4 Scan 2 (post dose, 5 mg oral), read-out: V T): 4.93 | Kp ([1]; brain white matter, intravenous, White matter, Subject 4 Scan 1 (baseline), read-out: V T): 5.04 | Kp ([1]; cerebellum, intravenous, Cerebellum, Subject 1 Scan 1 (baseline), read-out: V T): 5.33 | Kp ([1]; cerebellum, intravenous, Cerebellum, Subject 2 Scan 1 (baseline), read-out: V T): 4.75 | Kp ([1]; cerebellum, intravenous, Cerebellum, Subject 4 Scan 1 (baseline), read-out: V T): 5.17 | Kp ([1]; cerebellum, po, Cerebellum, Subject 2 Scan 2 (post dose, 5 mg oral), read-out: V T): 3.69 | Kp ([1]; cerebellum, po, Cerebellum, Subject 4 Scan 2 (post dose, 5 mg oral), read-out: V T): 4.56 | Kp ([1]; medial temporal lobe (MTL), intravenous, MTL, Subject 1 Scan 1 (baseline), read-out: V T): 7.81 | Kp ([1]; medial temporal lobe (MTL), intravenous, MTL, Subject 2 Scan 1 (baseline), read-out: V T): 13.3 | Kp ([1]; medial temporal lobe (MTL), intravenous, MTL, Subject 4 Scan 1 (baseline), read-out: V T): 7.11 | Kp ([1]; medial temporal lobe (MTL), po, MTL, Subject 2 Scan 2 (post dose, 5 mg oral), read-out: V T): 8.3 | Kp ([1]; medial temporal lobe (MTL), po, MTL, Subject 4 Scan 2 (post dose, 5 mg oral), read-out: V T): 6.91 | change in K1 following oral dose of 5 mg GSK1034702 ([1]; post-dose versus baseline scan): no significant change | change in VT following oral dose of 5 mg GSK1034702 ([1]; post-dose versus baseline scan): no significant change | Kp ([1]; thalamus, intravenous, Thalamus, Subject 1 Scan 1 (baseline), read-out: V T): 6.29 | Kp ([1]; thalamus, intravenous, Thalamus, Subject 2 Scan 1 (baseline), read-out: V T): 5.44 | Kp ([1]; thalamus, intravenous, Thalamus, Subject 4 Scan 1 (baseline), read-out: V T): 5.74 | Kp ([1]; thalamus, po, Thalamus, Subject 2 Scan 2 (post dose, 5 mg oral), read-out: V T): 4.39 | Kp ([1]; thalamus, po, Thalamus, Subject 4 Scan 2 (post dose, 5 mg oral), read-out: V T): 5.11 | Kp ([1]; white matter, intravenous, White matter, Subject 1 Scan 1 (baseline), read-out: V T): 4.63 | Kp ([1]; white matter, intravenous, White matter, Subject 2 Scan 1 (baseline), read-out: V T): 4.38 | Kp ([1]; white matter, po, White matter, Subject 2 Scan 2 (post dose, 5 mg oral), read-out: V T): 4.01 | Kp ([1]; white matter, po, White matter, Subject 4 Scan 2 (post dose, 5 mg oral), read-out: V T): 4.49 | Kp ([1]; male, medial temporal lobe (MTL), intravenous, range over scans, read-out: VT in the MTL): 7 to 13 | Kp ([1]; male, white matter, intravenous, range over scans, read-out: VT in the white matter): 4 to 5 | Kp [1, 3]: 4.9 | fraction unbound at 20 min [2]: 0.54 ± 0.21
SMILES: [11CH3]c1cc(F)c2[nH]c(=O)n(C3CCN(C4CCOCC4)CC3)c2c1 [[^11C]GSK1034702]
